Test results reported in article PMC12042115 (mLife, 2025).

System: wild‐type BCG cells
Assay type: cell-based, M. bovis BCG
Conditions: up-regulated

O=C(Oc1ccc(Cl)cc1)c1ccc(N2CCOCC2)c([N+](=O)[O-])c1 [GDI‐5755]
Mean_Ratio (GDI5755_3d vs DMSO_3d), protein BCG_3567c (A0A0H3M9P9, Mtb Rv3503c, Ferredoxin, fdxD): 1.7 | Mean_Ratio (GDI5755_3d vs DMSO_3d), protein BCG_0108c (A0A0H3M9Q4, Mtb Rv0077c, Probable oxidoreductase): 1.7 | Mean_Ratio (GDI5755_3d vs DMSO_3d), protein BCG_0192 (A0A0H3M9W8, Mtb Rv0156, proton-translocating NAD(P)(+) transhydrogenase,pntAb): 1.4 | Mean_Ratio (GDI5755_3d vs DMSO_3d), protein BCG_0727 (A0A0H3M257, Mtb Rv0678, Transcriptional regulator, MmpR5): 1.5 | Mean_Ratio (GDI5755_3d vs DMSO_3d), protein BCG_0761 (A0A0H3M268, Mtb Rv0711, Possible arylsulfatase atsA): 2.1 | Mean_Ratio (GDI5755_3d vs DMSO_3d), protein BCG_0463c (A0A0H3M270, Mtb Rv0424c, Uncharacterized protein): 1.4 | Mean_Ratio (GDI5755_3d vs DMSO_3d), protein BCG_0835 (A0A0H3M322, Mtb Rv0784, Deacetylase): 1.4 | Mean_Ratio (GDI5755_3d vs DMSO_3d), protein BCG_0351 (A0A0H3M331, Mtb MRA_0320, Uncharacterized protein): 1.5 | Mean_Ratio (GDI5755_3d vs DMSO_3d), protein BCG_0391 (A0A0H3M380, Mtb Rv0352, Chaperone protein DnaJ): 1.5 | Mean_Ratio (GDI5755_3d vs DMSO_3d), protein BCG_1609 (A0A0H3M480, Mtb Rv1557, conserved transmembrane transport protein mmpL6): 1.6 | Mean_Ratio (GDI5755_3d vs DMSO_3d), protein BCG_2010c (A0A0H3M561, Mtb Rv1993c, DUF1490 family protein): 1.8 | Mean_Ratio (GDI5755_3d vs DMSO_3d), protein BCG_2346c (A0A0H3M622, Mtb Rv2325c, Energy-coupling factor transporter transmembrane protein EcfT): 1.8 | Mean_Ratio (GDI5755_3d vs DMSO_3d), protein BCG_2009c (A0A0H3M639, Mtb Rv1992c, Probable metal cation transporter P-type atpase G ctpG): 1.3 | Mean_Ratio (GDI5755_3d vs DMSO_3d), protein BCG_1549 (A0A0H3M660, Mtb MRA_1496, Conserved membrane protein): 1.5 | Mean_Ratio (GDI5755_3d vs DMSO_3d), protein BCG_2360c (A0A0H3M719, Mtb Rv2338c, Possible molybdopterin biosynthesis protein moeW): 1.4 | Mean_Ratio (GDI5755_3d vs DMSO_3d), protein BCG_2455 (A0A0H3M775, Mtb Rv2436, Ribokinase, rbsK): 1.3 | Mean_Ratio (GDI5755_3d vs DMSO_3d), protein BCG_0465c (A0A0H3M812, Mtb MRA_0431, Possible transmembrane protein): 1.7 | Mean_Ratio (GDI5755_3d vs DMSO_3d), protein BCG_0517 (A0A0H3M881, Mtb Rv0476, Possible conserved transmembrane protein): 1.4 | Mean_Ratio (GDI5755_3d vs DMSO_3d), protein BCG_2934c (A0A0H3M896, Mtb Rv2913c, Possible D-amino acid aminohydrolase): 1.4 | Mean_Ratio (GDI5755_3d vs DMSO_3d), protein BCG_0993 (A0A0H3M955, Mtb Rv0939, Possible bifunctional enzyme: 2-hydroxyhepta-2,4-diene-1,7-dioate isomerase + cyclase/dehydrase): 1.3 | Mean_Ratio (GDI5755_3d vs DMSO_3d), protein BCG_3532 (A0A0H3M969, HNH nuclease domain-containing protein): 1.4 | Mean_Ratio (GDI5755_3d vs DMSO_3d), protein BCG_3038 (A0A0H3MA42, Mtb Rv3016, Probable lipoprotein lpqA): 1.3 | Mean_Ratio (GDI5755_3d vs DMSO_3d), protein BCG_0289c (A0A0H3MA45, Mtb Rv0251c, HSP20 family protein/ Heat stress induced ribosome-binding protein A,acr2): 3.9 | Mean_Ratio (GDI5755_3d vs DMSO_3d), protein BCG_3881 (A0A0H3MA52, Mtb Rv3819, Uncharacterized protein): 1.4 | Mean_Ratio (GDI5755_3d vs DMSO_3d), protein BCG_3758 (A0A0H3MAA8, Mtb Rv3699, Methyltransferase domain-containing protein): 1.3 | Mean_Ratio (GDI5755_3d vs DMSO_3d), protein BCG_0380 (A0A0H3MAC3, Mtb Rv0341, Isoniazid inductible gene protein iniB): 1.7 | Mean_Ratio (GDI5755_3d vs DMSO_3d), protein BCG_0413c (A0A0H3MAE2, Mtb Rv0375c, carbon monoxyde dehydrogenase (Medium chain)): 1.6 | Mean_Ratio (GDI5755_3d vs DMSO_3d), protein BCG_0595c (A0A0H3MAN8, Mtb Rv0550c, Antitoxin VapB3): 1.4 | Mean_Ratio (GDI5755_3d vs DMSO_3d), protein BCG_3239 (A0A0H3MAP0, Conserved hypothetical alanine valine rich protein): 1.4 | Mean_Ratio (GDI5755_3d vs DMSO_3d), protein BCG_3281c (A0A0H3MAS0, Mtb Rv3252c, transmembrane alkane 1-monooxygenase alkB): 1.5 | Mean_Ratio (GDI5755_3d vs DMSO_3d), protein BCG_3298 (A0A0H3MAT3, Mtb Rv3269, peptidoglycan-based cell wall/chaperonin-like protein,pacL1): 2.3 | Mean_Ratio (GDI5755_3d vs DMSO_3d), protein BCG_3319c (A0A0H3MAV3, Mtb Rv3290c, L-lysine 6-transaminase, lat): 1.7 | Mean_Ratio (GDI5755_3d vs DMSO_3d), protein BCG_3928 (A0A0H3MAW6, Mtb Rv3865, ESX-1 secretion-associated protein EspF): 1.6 | Mean_Ratio (GDI5755_3d vs DMSO_3d), protein BCG_0725c (A0A0H3MAX0, Mtb Rv0676c,, conserved transmembrane transport protein mmpL5): 1.6 | Mean_Ratio (GDI5755_3d vs DMSO_3d), protein BCG_0774 (A0A0H3MAY5, Mtb Rv0724, Possible protease IV sppA (Endopeptidase IV)): 1.4 | Mean_Ratio (GDI5755_3d vs DMSO_3d), protein BCG_3476 (A0A0H3MB64, Mtb Rv3406, Probable dioxygenase): 1.6 | Mean_Ratio (GDI5755_3d vs DMSO_3d), protein BCG_1890c (A0A0H3MB87, Mtb Rv1854c, NADH dehydrogenase ndh): 1.5 | Mean_Ratio (GDI5755_3d vs DMSO_3d), protein BCG_3590 (A0A0H3MBE7, Mtb Rv3526, Rieske-type oxygenase): 1.4 | Mean_Ratio (GDI5755_3d vs DMSO_3d), protein BCG_2026 (A0A0H3MBK2, Mtb Rv2009, Antitoxin VapB15, BCG_2026): 1.4 | Mean_Ratio (GDI5755_3d vs DMSO_3d), protein BCG_2056c (A0A0H3MBM9, Mtb MRA_2052, conserved transmembrane protein): 1.4 | Mean_Ratio (GDI5755_3d vs DMSO_3d), protein BCG_1028c (A0A0H3MBR5, Mtb Rv0974c, Probable acetyl-/propionyl-coa carboxylase (Beta subunit) accD2): 1.4 | Mean_Ratio (GDI5755_3d vs DMSO_3d), protein BCG_3824c (A0A0H3MBY6, Mtb Rv3765c, Two component transcriptional regulatory protein，TcrX): 1.4 | Mean_Ratio (GDI5755_3d vs DMSO_3d), protein BCG_1101c (A0A0H3MBZ0, Mtb Rv1043c, Serine protease，BCG_1101c): 1.4 | Mean_Ratio (GDI5755_3d vs DMSO_3d), protein BCG_2613 (A0A0H3MCY6, Mtb Rv2590, Carboxylic acid reductase,fadD9): 1.6 | Mean_Ratio (GDI5755_3d vs DMSO_3d), protein BCG_2656 (A0A0H3MD16, Mtb Rv2629, Uncharacterized protein): 1.4 | Mean_Ratio (GDI5755_3d vs DMSO_3d), protein BCG_3528 (A0A0H3MEV5, Mtb Rv3463, Luciferase-like domain-containing protein): 1.4 | Mean_Ratio (GDI5755_3d vs DMSO_3d), protein BCG_2486c (A0A0H3MFK9, Mtb Rv2466c, DSBA-like thioredoxin domain-containing protein): 1.7 | Mean_Ratio (GDI5755_3d vs DMSO_3d), protein BCG_2502c (A0A0H3MFM6, Mtb Rv2484c, Diacylglycerol O-acyltransferase): 1.4 | Mean_Ratio (GDI5755_3d vs DMSO_3d), protein BCG_2658 (A0A0H3MG12, Mtb Rv2631, tRNA-splicing ligase RtcB): 1.4 | Mean_Ratio (GDI5755_3d vs DMSO_3d), protein BCG_2794c (A0A0H3MGD9, Mtb Rv2777c, Metal-dependent hydrolase): 1.5 | Mean_Ratio (GDI5755_3d vs DMSO_3d), protein BCG_2984 (A0A0H3MGS1, Mtb Rv2963, integral membrane protein): 1.5 | Mean_Ratio (GDI5755_3d vs DMSO_3d), protein BCG_3119c (A0A0H3MH35, Mtb Rv3094c, Hydroxylase): 1.4 | Mean_Ratio (GDI5755_3d vs DMSO_3d), protein BCG_3299 (A0A0H3MHJ0, Mtb Rv3270, metal cation-transporting P-type atpase C ctpC): 1.5 | Mean_Ratio (GDI5755_3d vs DMSO_3d), protein BCG_3591 (A0A0H3MID2, Mtb Rv3527, Uncharacterized protein): 1.6 | Mean_Ratio (GDI5755_3d vs DMSO_3d), protein BCG_3917c (A0A0H3MJE2, Mtb Rv3854c, Monooxygenase ethA): 1.5 | Mean_Ratio (GDI5755_3d vs DMSO_3d), protein BCG_0095 (A1KEN2, Mtb Rv0064, UPF0182 protein BCG_0095): 1.4 | Mean_Ratio (GDI5755_3d vs DMSO_3d), protein BCG_0181 (A1KEW5, Mtb Rv0145, S-adenosyl-L-methionine-dependent methyltransferase BCG_0181): 1.8 | Mean_Ratio (GDI5755_3d vs DMSO_3d), protein BCG_0182 (A1KEW6, Mtb Rv0146, Putative S-adenosyl-L-methionine-dependent methyltransferase): 2.8 | Mean_Ratio (GDI5755_3d vs DMSO_3d), protein BCG_0248 (A1KF31, Mtb Rv0211, Phosphoenolpyruvate carboxykinase [GTP], pckG): 2.3 | Mean_Ratio (GDI5755_3d vs DMSO_3d), protein BCG_0389 (A1KFH2, Mtb Rv0350, Chaperone protein DnaK/Heat shock protein 70): 1.5 | Mean_Ratio (GDI5755_3d vs DMSO_3d), protein BCG_0390 (A1KFH3, Mtb Rv0351, Protein GrpE/HSP-70 cofactor): 1.4 | Mean_Ratio (GDI5755_3d vs DMSO_3d), protein BCG_0516 (A1KFU9, Mtb Rv0475, Heparin-binding hemagglutinin): 1.3 | Mean_Ratio (GDI5755_3d vs DMSO_3d), protein BCG_0605c (A1KG37, Mtb Rv0560c, Benzoquinone methyltransferase/Rv0560c/htm): 2.5 | Mean_Ratio (GDI5755_3d vs DMSO_3d), protein BCG_0883 (A1KGW3, Mtb Rv0830, S-adenosyl-L-methionine-dependent methyltransferase): 1.9 | Mean_Ratio (GDI5755_3d vs DMSO_3d), protein BCG_1036 (A1KHB7, Mtb Rv0981, Response regulator MprA): 1.4 | Mean_Ratio (GDI5755_3d vs DMSO_3d), protein BCG_1284 (A1KI12, Mtb Rv1224, Sec-independent protein translocase protein TatB): 1.4
